The text below walks through data of PubChem BioAssay (NCI).

“And” between values parts separate entries of the source, which are not always exact repeats. Identical values can stand only once.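 The compound was tested at five concentrations on cells cultured in 96-well plates, with a 48-hour exposure period. Here, GI50 denotes the concentration required for 50% inhibition of growth. TGI: total growth inhibition.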 Some results are limits rather than exact numbers.

The assay relates to MDA-MB-468 breast. Nature of the assay: NCI anticancer screen, dose series, 48 h.
`C=C1C(=O)O[C@H]2[C@H]1CC/C(CNC(=O)/C=C/c1ccccc1)=C\CC[C@@]1(C)O[C@@H]21`: the GI50 was 0.48 µM and the TGI was determined as 1.69 µM.
As to `COc1cccc(C2C(C#N)=C(N)Oc3c2ccc2ccccc32)c1` (stereo unspecified), the GI50 is 0.0194 µM and the TGI turned out to be 7.04 µM.
The like results for `Cc1c2ccncc2c(C)c2c1c1cc(CO)ccc1n2C` were, in that order, 0.105 µM and 0.327 µM.
On to `Cc1ccc(NC(=O)Nc2nc3ccc([N+](=O)[O-])cc3s2)cc1`, for which the GI50 was 1.71 µM and the TGI is 5.8 µM.
On the same counts, the results for `CN(c1ccc(C#N)c(Cl)c1)C1CCC(NC(=O)c2ccc(N3CCN(C4CN(c5ccc6c(c5)C(=O)N(C5CCC(=O)NC5=O)C6=O)C4)CC3)cc2)CC1` (stereo unspecified) are 13.7 µM and 60 µM.
Take `O=C1CCC(N2C(=O)c3cccc(NCCCC4CCN(CCNC(=O)c5cc6c(o5)C(=O)c5ccccc5C6=O)CC4)c3C2=O)C(=O)N1` (stereo unspecified): the GI50 is 0.265 µM and the TGI stood at 1.94 µM.
Take `Cn1c2c(c3ccccc31)CCN1C(=O)C3SC21C1C(=O)N(c2ccccc2)C(=O)C31` (stereo unspecified): the GI50 is 51.6 µM and the TGI was above 100 µM.
On the same counts, the results for `CCN(CC)CCC(CNc1c(C)cnc2cc(Cl)ccc12)c1ccc(Cl)cc1` (stereo unspecified) are 2.05 µM and 5.45 µM.
On the same counts, the results for `COc1ccc2c(c1)/C(=C\c1c[nH]c3ccc(OC)cc13)C(=O)N2` are 1.78 µM and 5.66 µM.
As for `NNc1c2ccccc2nc2ccccc12`, the GI50 was 0.47 µM and the TGI came out at 13 µM.
On the same counts, the results for `Cn1nnc2c(C(N)=O)ncn2c1=O` are above 100 µM and above 100 µM.
The like results for `COc1cc(C2CC(=O)Nc3c2cc(Br)c2ccccc32)cc(Br)c1OC` (stereo unspecified) were, in that order, 0.529 µM and 2.54 µM.
For the compound `COc1cc(/C=C/[N+](=O)[O-])cc(OC)c1OC`, the GI50 is 1.32 µM and the TGI came out at 2.87 µM.
Turning to `C[C@H]1c2ccccc2CN1CCCOc1cc2c(cc1OCC1CC1)C1(CCCC1)C(N)=N2`, the GI50 is 0.813 µM and the TGI was 1.83 µM.
Regarding `CC/C=C\C/C=C/C=C1/C(=O)C=C[C@@H]1C/C=C\CCCC(=O)OC`, the GI50 is 1.79 µM and the TGI was 3.83 µM.
As to `COc1cccc(CC(C)=C(c2ccc(OCCCN(C)C)cc2)c2ccc(OCCCN(C)C)cc2)c1`, the GI50 was 0.518 µM and the TGI came out at 1.18 µM.
On the same counts, the results for `NS(=O)(=O)c1cccc(-c2ccc3c(NC(=O)C4CC4)n[nH]c3c2)c1` are 5.25 µM and above 25 µM.
The like results for `O=c1c(O)cccn1CCCN(CCCn1cccc(O)c1=O)CCn1cccc(O)c1=O` were, in that order, 8.33 µM and 45.6 µM.
On the same counts, the results for `Oc1c(Cl)cc(Cl)c2cccnc12` are 2.1 µM and 5.53 µM.
Regarding `CC(=O)O.CC(=O)O.CC(=O)O.CC(=O)O.[Rh].[Rh]`, the GI50 is 15 µM and the TGI turned out to be 58.1 µM.
On to `O=C1CSC(c2ccccc2O)N1c1nnc(Cn2ccnc2)o1` (stereo unspecified), for which the GI50 is 3.11 µM and the TGI stood at 13.2 µM.
Take `Cc1cc(NC(=O)c2cnc(N3CCN(CCOCCOCCOCCOCCC(=O)N[C@H](C(=O)N4C[C@H](O)C[C@H]4C(=O)N[C@@H](C)c4ccc(-c5scnc5C)cc4)C(C)(C)C)CC3)cn2)c2ncccc2c1`: the GI50 was 1.67 µM and the TGI is 3.39 µM.
On the same counts, the results for `C=C1CC[C@@H]2[C@](C)(COC(C)=O)[C@H](OC(C)=O)CC[C@@]2(C)[C@@H]1CC(Nc1ccc(S(=O)(=O)Nc2nccs2)cc1)C1=CCOC1=O` (stereo partly specified) are 1.83 µM and 4.43 µM.
`N/C(=N\c1nc2ccccc2s1)NC(=NC1CCCCC1)NC1CCCCC1`: the GI50 is 1.7 µM and the TGI stood at 3.41 µM.
The like results for `COc1ccc(Oc2ccccc2NC(=O)CNC(=O)c2cccc3ccccc23)cc1` were, in that order, 0.454 µM and above 25 µM.
Turning to `C=CCn1c(=O)c2cnc(Nc3ccc(N4CCN(C)CC4)cc3)nc2n1-c1cccc(C(C)(C)O)n1`, the GI50 is 0.144 µM and 0.317 µM; the TGI was 0.801 µM and 2.08 µM.
With `O=[N+]([O-])c1ccc2c(Nc3ccccc3-c3ccccc3Nc3c4ccccc4nc4cc([N+](=O)[O-])ccc34)c3ccccc3nc2c1`, the GI50 is 2.25 µM and the TGI amounted to 8.6 µM.
On the same counts, the results for `Cc1cccc2c(Nc3ccc(NS(C)(=O)=O)cc3)c3ccc([N+](=O)[O-])cc3nc12` are 0.202 µM and 0.882 µM.
Take `C[C@@H]1COCCN1c1cc(-c2ccnn2C)c2ccnc(-c3ccn[nH]3)c2n1`: the GI50 was 0.164 µM and 0.324 µM; the TGI was 0.854 µM and 3.08 µM.
Turning to `CCOC(=O)C1=C(C)N2C(=NC3=C(CCC/C3=C\c3ccc(Cl)cc3)C2c2ccc(Cl)cc2)S1` (stereo unspecified), the GI50 was 2.36 µM and the TGI came out at 6.19 µM.
The like results for `CCN(CC)CCCC(C)Nc1c(-c2ccccc2)cnc2cc(Cl)ccc12` (stereo unspecified) were, in that order, 2.63 µM and 7.95 µM.
For the compound `Nc1n[nH]c2ccc([C@@H]3Nc4cc5[nH]ncc5cc4[C@H]4C5CCC(C5)[C@@H]34)cc12` (stereo partly specified), the GI50 is 0.211 µM and the TGI was found to be 0.873 µM.
On the same counts, the results for `CCN1C(=O)N(CC)C2C1NN=c1s/c(=C\c3ccc[nH]3)c(=O)n12` (stereo unspecified) are 0.265 µM and above 100 µM.
The like results for `Cc1oc2c(c1C(=O)N1CC[C@@H](N)C1)C(=O)c1c(c(O)c3ccccc3c1O)C2=O` were, in that order, 2.52 µM and 11.9 µM.
In the case of `Brc1cccc(-c2cc(-c3ccc4nccnc4c3)[nH]n2)c1`, the GI50 is 0.9 µM.
As for `Cc1ccc(Sc2oc(-c3ccc(C)cc3)nc2[P+](c2ccccc2)(c2ccccc2)c2ccccc2)cc1`, the GI50 is 0.227 µM and the TGI came out at 0.705 µM.
For the compound `Nc1ncccc1-c1nc2ccc(-c3ccccc3)nc2n1-c1ccc(C2(N)CCC2)cc1`, the GI50 was 0.117 µM and the TGI came out at 1.99 µM.
The like results for `O=C(Nc1cnc(C(F)(F)F)cn1)c1cc(Cl)ccc1O` were, in that order, 0.282 µM and 0.819 µM.
Regarding `O=C1/C(=C/c2cccc(Br)c2)COc2ccc(O)c(O)c21`, the GI50 is 1.6 µM and the TGI came out at 3.8 µM.
Take `COC1=CC(=O)c2c(O)c3c(c(O)c2C1=O)C[C@](C)(O)C[C@@H]3O`: the GI50 is 2.16 µM and the TGI amounted to 7.13 µM.
In the case of `CCN(C(=O)CN1CCN(c2cc3c(cc2F)c(=O)c(C(=O)O)cn3CC)CC1)c1nc(-c2ccccc2)cs1`, the GI50 was 0.307 µM and the TGI is 0.896 µM.
As to `OCc1ccc(N2CCCC2)cc1Cl`, the GI50 is 0.0757 µM and the TGI amounted to 0.324 µM.
On to `COc1cc(OC)cc(-c2n/c(=C\c3c(O)[nH]c4ccc(Cl)cc34)cc3c2=Nc2ccccc2-3)c1`, for which the GI50 is 17.9 µM and the TGI amounted to 45.6 µM.
On the same counts, the results for `COc1ccc(C2C(C#N)=C(/N=C/c3ccc(Cl)cc3)Oc3c2sc2c(C)cccc32)cc1` (stereo unspecified) are 1.09 µM and 9.34 µM.
As to `NC(=O)c1cccc(-c2cc(C(N)=O)ccc2Cl)c1`, the GI50 was 4.61 µM and the TGI is above 100 µM.
Consider `CCN(CC)C(=S)SSC(=S)N(CC)CC`, for which the GI50 was 15.8 µM and 16.8 µM; the TGI was 43.7 µM and 44.8 µM.
